In patent US20110082101A1, “COMBINATIONS COMPRISING EPOTHILONES AND ANTI-METABOLITES” (priority 2002, published 2011):

Legend:
advanced renal cancer = assay: Treatment of a human patient having advanced renal cancer with epothilone B plus capecitabine; assay type: in vivo; settings: Example 1, one human patient, combination: epothilone B 0.5 mg/m^2 five minutes bolus infusion weekly for 3 weeks, one week off, plus capecitabine orally 1250 mg/m^2 twice daily for two weeks, cycle repeated several times
Method: A human patient having advanced renal cancer receives 0.5 mg/m^2 of epothilone B as a five minutes bolus infusion weekly for 3 weeks followed by one week off. Starting in the second week of the epothilone treatment and at least two hours after said treatment, capecitabine is applied orally to said patient twice daily at a dosage of 1250 mg/m^2 for two weeks followed by one week off. The whole treatment cycle is applied to the patient several times. Stable disease is observed for about 8 months.

advanced colon cancer = assay: Treatment of a human patient having advanced colon cancer with epothilone B plus gemcitabine hydrochloride; assay type: in vivo; settings: Example 5, one human patient, combination: epothilone B 0.5 mg/m^2 five minutes bolus infusion weekly for 3 weeks, one week off, plus gemcitabine hydrochloride 800 mg/m^2 twice daily, cycle repeated several times
Method: A human patient having advanced colon cancer receives 0.5 mg/m^2 of epothilone B as a five minutes bolus infusion weekly for 3 weeks followed by one week off. Immediately following said treatment, gemcitabine hydrochloride is applied orally to said patient twice daily at a dosage of 800 mg/m^2. The whole treatment cycle is applied to the patient several times. Stable disease is observed for about […] months.

Structure (SMILES): C/C(=C\c1csc(C)n1)[C@@H]1C[C@@H]2O[C@]2(C)CCC[C@H](C)[C@H](O)[C@@H](C)C(=O)C(C)(C)[C@@H](O)CC(=O)O1 [epothilone B]
- Stable disease observed for (duration) (advanced renal cancer): about 8 months
- Stable disease observed for (duration) (advanced colon cancer): about 3%
